Measured values from patent US20050245463A1, “Novel antiretroviral sulfolipids extracted from spirulinae, method for obtaining same, compositions containing same and use thereof as inhibitors of the hiv virus reverse transcriptase” (priority 2002, published 2005).
pIC50: −log10 of the molar value. Converted amounts (≈) assume the structure as drawn.

Legend:
Type in all cases: biochemical
[1] = biological target: T1, RNase-H of HIV-1 reverse transcriptase (Human immunodeficiency virus type 1 group M subtype B, UniProt P03366); assay: Inhibition of the RNase-H of HIV-1 reverse transcriptase; conditions: for RNase-H % of initial enzymatic activity: 100 μM of each sulfolipid molecular species, residual activity as % of control without inhibitor; for inhibition of the RNase-H of HIV-1 reverse transcriptase (in words): ranking among molecular species
T1 construct: The HIV-1 and HIV-2 reverse transcriptases are the hetero-dimers p.66/p.5 l and p.68/p.55, respectively; made in house; host or cells: E. coli
Procedure: (§1) The reverse transcriptases used in this study are the recombinant enzymes expressed in E. coli and purified from the bacterial extracts (16). The HIV-1 reverse transcriptase expression plasmid originates from the proviral isolate BH-10 (17), while the HIV-2 reverse transcriptase expression plasmid originates from the isolate pRod (18). The HIV-1 and HIV-2 reverse transcriptases are the hetero-dimers p.66/p.5 l and p.68/p.55, respectively.
(§2) The enzymatic tests are performed by the method of Loya et al. (19). The DNA polymerase activity is measured by monitoring the incorporation of […] into the product insoluble in trichloroacetic acid (TCA), in the presence of different concentrations of sulfolipids. The RNase-H activity is measured by measuring the delivery of the TCA-soluble product from the synthetic substrate [^3H]poly(rA)n.poly (dT)n. This substrate is prepared by the procedure of Hizi et al. (1991) (20). In all the inhibition experiments, the enzymes are preincubated for 5 min at 30° C. in the absence or presence of inhibitors at different concentrations. The enzymatic reactions are started by the addition of appropriate substrate at 37° C. for 30 min.
(§3) The residual enzymatic activity is calculated relative to the initial rates of the (linear) reaction observed in the absence of sulfolipids.
(b) One unit of RNase-H activity is the amount of enzyme which catalyzes the hydrolysis of one pmol of AMP at 37° C. over 30 min under standard test conditions.

[2] = biological target: T2, DNA polymerase of HIV-1 reverse transcriptase (Human immunodeficiency virus type 1 group M subtype B, UniProt P03366); assay: Inhibition of the DNA polymerase of HIV-1 reverse transcriptase; conditions: for pIC50: concentration that inhibits 50% of the initial enzymatic activity; for IC90: concentration that inhibits 90% of the initial enzymatic activity; for inhibitory activity towards the DNA polymerase of HIV-1 reverse transcriptase (in words): ranking among molecular species
T2 construct: The HIV-1 and HIV-2 reverse transcriptases are the hetero-dimers p.66/p.5 l and p.68/p.55, respectively; made in house; host or cells: E. coli
Procedure: as §1, §2, §3
The concentration of inhibitors that leads to 50% inhibition of the enzymatic activities (IC50) is calculated from the curves of inhibition as a function of inhibitor (sulfolipid) concentration.
(§4) (a) One unit of DNA polymerase activity is the amount of enzyme which catalyzes the incorporation of one pmol of dNTP into the DNA product at 37° C. over 30 min under standard test conditions.

[3] = biological target: T3, DNA polymerase activity of HIV-2 reverse transcriptase (Human immunodeficiency virus type 2 subtype A, UniProt P04584); assay: DNA polymerase activity of HIV-2 reverse transcriptase
T3 construct: The HIV-1 and HIV-2 reverse transcriptases are the hetero-dimers p.66/p.5 l and p.68/p.55, respectively; made in house; host or cells: E. coli
T3 sequence (P04584 613-1051): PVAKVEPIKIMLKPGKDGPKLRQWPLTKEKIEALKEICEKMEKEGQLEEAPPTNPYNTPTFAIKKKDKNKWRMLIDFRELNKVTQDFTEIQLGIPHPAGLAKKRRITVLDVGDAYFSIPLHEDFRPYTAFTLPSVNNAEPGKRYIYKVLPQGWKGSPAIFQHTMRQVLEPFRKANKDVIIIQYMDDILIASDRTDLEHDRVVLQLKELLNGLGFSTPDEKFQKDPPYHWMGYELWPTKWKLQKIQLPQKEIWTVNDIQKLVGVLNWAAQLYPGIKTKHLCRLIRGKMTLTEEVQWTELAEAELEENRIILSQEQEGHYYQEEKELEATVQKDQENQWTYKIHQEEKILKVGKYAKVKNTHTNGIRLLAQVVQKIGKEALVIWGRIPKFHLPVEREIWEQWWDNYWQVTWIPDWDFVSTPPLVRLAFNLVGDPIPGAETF
T3 sequence (P04584 613-1171): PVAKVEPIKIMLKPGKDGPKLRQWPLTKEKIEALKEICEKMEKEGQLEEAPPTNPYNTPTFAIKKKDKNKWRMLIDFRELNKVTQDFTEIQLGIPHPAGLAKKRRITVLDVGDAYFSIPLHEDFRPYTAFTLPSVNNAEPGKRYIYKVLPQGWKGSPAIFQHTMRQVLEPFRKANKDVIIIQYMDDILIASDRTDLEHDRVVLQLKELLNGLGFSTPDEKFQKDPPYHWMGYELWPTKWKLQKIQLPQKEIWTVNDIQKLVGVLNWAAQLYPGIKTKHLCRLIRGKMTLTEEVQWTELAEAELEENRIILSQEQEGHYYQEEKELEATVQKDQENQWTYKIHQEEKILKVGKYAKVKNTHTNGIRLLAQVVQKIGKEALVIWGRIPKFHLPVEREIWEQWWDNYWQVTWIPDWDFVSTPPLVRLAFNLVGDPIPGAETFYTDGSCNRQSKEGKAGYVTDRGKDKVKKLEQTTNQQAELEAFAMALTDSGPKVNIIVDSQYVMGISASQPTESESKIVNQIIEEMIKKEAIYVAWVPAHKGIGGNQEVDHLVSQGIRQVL
Procedure: as §1, §2, §3, §4

| Structure (SMILES) | RNase-H % of initial enzymatic activity [1] | pIC50 [2] | IC90 [2] | inhibitory activity towards the DNA polymerase activity of HIV-2 reverse transcriptase (in words) [3] | inhibition of the RNase-H of HIV-1 reverse transcriptase (in words) [1] | inhibitory activity towards the DNA polymerase of HIV-1 reverse transcriptase (in words) [2] | other results |
| --- | --- | --- | --- | --- | --- | --- | --- |
| CCCCCC=CCC=CCC=CCCCCC(=O)OCC(COC1OC(CS(=O)(=O)O)C(O)C(O)C1O)OC(=O)CCCCCCCCCCCCCCC (stereo not shown) [γC18:3/C16:0] | 100% | 3.66 | 533 µg/mL (≈ 652 µM) | – | – | – | – |
| CCCCCCCCC=CCCCCCCCC(=O)OCC(COC1OC(CS(=O)(=O)O)C(O)C(O)C1O)OC(=O)CCCCCCCC=CCCCCCCCC (stereo not shown) [C18:1/C18:1] | 60 + 2% | 4.62 | 68.3 µg/mL (≈ 80.6 µM) | the highest | highest activities | highest activities | Residual enzymatic activity (%) ([3]; 4.0 + 0.5 μg/ml): 100 + 1%; Residual enzymatic activity (%) ([3]; 8.0 + 0.6 μg/ml): 92 + 1%; Residual enzymatic activity (%) ([3]; 16.0 + 0.7 μg/ml): 70 + 2%; Residual enzymatic activity (%) ([3]; 26.1 + 1.8 μg/ml): 50 + 1%; Residual enzymatic activity (%) ([3]; 36.0 + 1.0 μg/ml): 35 + 1%; Residual enzymatic activity (%) ([3]; 71.9 + 1.0 μg/ml): 22 + 2% |
| CCCCCC=CCC=CCCCCCCCC(=O)OC(COC(=O)CCCCCCCC=CCCCCCCCC)COC1OC(CS(=O)(=O)O)C(O)C(O)C1O (stereo not shown) [C18:1/C18:2] | 100% | 3.61 | 628 µg/mL (≈ 743 µM) | – | – | – | – |
| CCCCCCCCCCCCCCCC(=O)OCC(COC1OC(CS(=O)(=O)O)C(O)C(O)C1O)OC(=O)CCCCCCCCCCCCCCC (stereo not shown) [C16:0/C16:0] | 47 + 4% | 3.87 | 452 µg/mL (≈ 568 µM) | – | highest activities | – | – |
| CCCCCC=CCC=CCCCCCCCC(=O)OCC(COC1OC(CS(=O)(=O)O)C(O)C(O)C1O)OC(=O)CCCCCCCC=CCC=CCCCCC (stereo not shown) [C18:2/C18:2] | 100% | 3.48 | 840 µg/mL (≈ 996 µM) | – | – | – | – |
| CCCCCCCCC=CCCCCCCCC(=O)OCC(COC1OC(CS(=O)(=O)O)C(O)C(O)C1O)OC(=O)CCCCCCCCCCCCCCC (stereo not shown) [C18:1/C16:0] | 64 + 6% | 4.54 | 73.6 µg/mL (≈ 89.6 µM) | have an inhibitory activity | highest activities | highest activities | Residual enzymatic activity (%) ([3]; 4.8 + 0.9 μg/ml): 100 + 1%; Residual enzymatic activity (%) ([3]; 9.6 + 0.9 μg/ml): 93 + 2%; Residual enzymatic activity (%) ([3]; 19.1 + 0.9 μg/ml): 74 + 2%; Residual enzymatic activity (%) ([3]; 33.5 + 2.0 μg/ml): 50 + 1%; Residual enzymatic activity (%) ([3]; 38.3 + 1.8 μg/ml): 42 + 2%; Residual enzymatic activity (%) ([3]; 76.5 + 2.0 μg/ml): 24 + 2% |
| CCCCCC=CCC=CCCCCCCCC(=O)OCC(COC1OC(CS(=O)(=O)O)C(O)C(O)C1O)OC(=O)CCCCCCCC=CCCCCCCCC (stereo not shown) [C18:2/C18:1] | 100% | 3.53 | 753 µg/mL (≈ 891 µM) | – | – | – | – |
| CCCCCCC=CCCCCCCCC(=O)OCC(COC1OC(CS(=O)(=O)O)C(O)C(O)C1O)OC(=O)CCCCCCCCCCCCCCC (stereo not shown) [C16:1/C16:0] | 42 + 3% | 3.96 | 302 µg/mL (≈ 381 µM) | – | highest activities | – | Residual enzymatic activity (%) ([3]; 10.2 + 0.5 μg/ml): 100 + 1%; Residual enzymatic activity (%) ([3]; 25.0 + 0.6 μg/ml): 96 + 1%; Residual enzymatic activity (%) ([3]; 48.9 + 0.9 μg/ml): 69 + 1%; Residual enzymatic activity (%) ([3]; 97.5 + 1.5 μg/ml): 58 + 2%; Residual enzymatic activity (%) ([3]; 108.0 + 3.0 μg/ml): 50 + 1%; Residual enzymatic activity (%) ([3]; 198.5 + 3.4 μg/ml): 24 + 2% |
| CCCCCC=CCC=CCCCCCCCC(=O)OCC(COC1OC(CS(=O)(=O)O)C(O)C(O)C1O)OC(=O)CCCCCCCCCCCCCCC (stereo not shown) [C18:2/C16:0] | 100% | 4.04 | 281 µg/mL (≈ 344 µM) | have an inhibitory activity | – | highest activities | Residual enzymatic activity (%) ([3]; 9.5 + 0.9 μg/ml): 100 + 1%; Residual enzymatic activity (%) ([3]; 23.8 + 0.9 μg/ml): 96 + 2%; Residual enzymatic activity (%) ([3]; 47.7 + 1.8 μg/ml): 70 + 2%; Residual enzymatic activity (%) ([3]; 95.4 + 2.0 μg/ml): 56 + 2%; Residual enzymatic activity (%) ([3]; 105.0 + 5.0 μg/ml): 50 + 1%; Residual enzymatic activity (%) ([3]; 190.8 + 4.8 μg/ml): 25 + 2% |
